Measured values taken from patent publication US20080182898A1, “Treatment of metabolic syndrome with norfluoxetine” (AMPLA Pharmaceuticals Inc., priority 2007, published 2008).

Molecular target: CB1 receptor (Homo sapiens, UniProt P21554)
Test: functional activity versus the CB1 receptor
Details: qualitative statement, no method or numbers given

CB1 receptor, sequence (P21554 whole entry): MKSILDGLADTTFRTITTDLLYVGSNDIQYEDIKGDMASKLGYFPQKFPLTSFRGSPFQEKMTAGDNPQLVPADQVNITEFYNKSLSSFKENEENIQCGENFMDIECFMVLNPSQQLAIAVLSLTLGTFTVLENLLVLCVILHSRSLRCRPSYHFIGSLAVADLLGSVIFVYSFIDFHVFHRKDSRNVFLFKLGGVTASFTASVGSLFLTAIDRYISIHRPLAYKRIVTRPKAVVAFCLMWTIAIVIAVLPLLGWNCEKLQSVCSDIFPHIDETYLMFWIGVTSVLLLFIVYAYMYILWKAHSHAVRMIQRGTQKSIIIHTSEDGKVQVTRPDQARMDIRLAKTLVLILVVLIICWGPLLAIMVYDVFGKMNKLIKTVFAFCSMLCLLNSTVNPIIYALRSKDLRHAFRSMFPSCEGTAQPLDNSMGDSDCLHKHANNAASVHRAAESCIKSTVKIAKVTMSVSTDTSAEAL

| Compound | functional activity versus the CB1 receptor (mode of action) |
| --- | --- |
| CNCC[C@H](Oc1ccc(C(F)(F)F)cc1)c1ccccc1 [(S)-Fluoxetine] | inverse agonist |
| NCCC(Oc1ccc(C(F)(F)F)cc1)c1ccccc1 (racemic) [racemate of norfluoxetine, 3-(4-trifluoromethylphenoxy)3-phenylpropylamine] | antagonist |
| CNCC[C@@H](Oc1ccc(C(F)(F)F)cc1)c1ccccc1 [(R)-fluoxetine] | antagonist |
